# Patent US7183411B2, “Naphthol, quinoline and isoquinoline-derived urea modulators of vanilloid VR1 receptor” (Janssen Pharmaceutica N.V., priority 2002, dated 2007)
# Tests used:
# [1] = tested on: capsaicin-induced guinea pig bronchial ring contraction; assay: Isolated guinea pig bronchial rings, capsaicin-induced contraction (organ bath)
# Description: Aminotetralin VR1 antagonists were tested for their potency to block capsaicin-induced guinea pig bronchial ring contraction in a standard in vitro organ bath assay [Tucker, 2001]. Two mm rings of bronchial tissue obtained from male guinea pigs (325 g) were suspended in normal Krebs solution between two wire hooks under an initial loading tension of 1 gram. The saline was maintained in a 5% CO2 and 95% O2 atmosphere at 37° C. in the presence of indomethacin (5 μM). A sub-maximal dose of 5-Methylfurmethide (5Mef, 1 μM) was added to each tissue to determine responsiveness using an isometric force transducer. After washout, tissues were exposed to compounds or vehicle for 30 min, treated with thiorphan (10 μM, 5% Na2CO3), and primed using KCl in increasing linear concentrations from 1 mM at 1 mM intervals until a slight increase in muscle tone was induced (˜1% of 5Mef response). […] The dose response curve was calculated as % max of the 5-Mef response and estimated pA2 were determined [Tucker, 2001]).
# human VR1 = molecular target: T1, human VR1 (Homo sapiens, UniProt Q8NER1); assay: Human VR1 functional assay (FLIPR intracellular Ca2+, capsaicin challenge); assay type: cell-based; conditions: read-out: In vitro functional assays hIC50 or EC50
# T1 construct: expressed in transfected cells; host or cells: HEK293
# T1 sequence (Q8NER1 whole entry): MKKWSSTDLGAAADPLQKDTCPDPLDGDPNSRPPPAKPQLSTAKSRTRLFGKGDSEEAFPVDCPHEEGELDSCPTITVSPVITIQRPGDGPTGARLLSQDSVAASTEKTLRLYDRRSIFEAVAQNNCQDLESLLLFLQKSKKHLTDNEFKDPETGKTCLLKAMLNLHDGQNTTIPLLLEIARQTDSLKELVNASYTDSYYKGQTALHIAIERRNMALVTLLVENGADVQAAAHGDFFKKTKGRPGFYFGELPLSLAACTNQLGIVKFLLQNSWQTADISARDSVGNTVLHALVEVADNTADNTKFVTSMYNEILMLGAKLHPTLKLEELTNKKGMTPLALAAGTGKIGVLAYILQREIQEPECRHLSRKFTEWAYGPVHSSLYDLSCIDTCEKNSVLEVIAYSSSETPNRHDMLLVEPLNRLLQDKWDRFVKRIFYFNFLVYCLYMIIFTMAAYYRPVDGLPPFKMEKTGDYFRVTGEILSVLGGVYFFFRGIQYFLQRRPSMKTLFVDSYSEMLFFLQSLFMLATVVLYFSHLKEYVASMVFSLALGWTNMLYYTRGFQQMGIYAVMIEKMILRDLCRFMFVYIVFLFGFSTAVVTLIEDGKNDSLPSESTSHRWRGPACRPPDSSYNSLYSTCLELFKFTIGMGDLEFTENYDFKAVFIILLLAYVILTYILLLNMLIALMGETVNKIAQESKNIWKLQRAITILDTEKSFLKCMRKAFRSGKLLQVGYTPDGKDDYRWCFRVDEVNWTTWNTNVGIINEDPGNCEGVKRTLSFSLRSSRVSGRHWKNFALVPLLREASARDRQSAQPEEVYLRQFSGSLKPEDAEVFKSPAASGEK
# Description: The functional activity of the test compounds was determined by measuring changes in intracellular calcium concentration using a Ca^++-sensitive fluorescent dye and FLIPR™ technology.
# HEK293 Cells expressing human VR1 were grown on poly-D-lysine coated 96 well black-walled plates (BD 354640) and 2 days later loaded with Fluo-3/AM for 1 hour and subsequently tested for agonist-induced increases in intracellular Ca^2+ levels using FLIPR™ technology. […] EC50 or IC50 values were determined from dose-response studies.
# [2] = tested on: DSS-induced acute colitis; assay: Rodent colitis model (5% dextran sulfate sodium); assay type: in vivo, mice or rats; conditions: preliminary study
# Description: 5% Dextran Sulfate Sodium administered in the drinking water of mice or rats for 7 days results in an acute colitis with some morphological changes that are similar to human ulcerative colitis. Among those changes are colon shortening, accumulation of neutrophils and other inflammatory cells, decreases in colon weight, decreases in body weight, tissue damage in the colon, and loss of stool consistency.
# Each animal is dosed daily in the morning and late afternoon for BID dosing. Treatment with vehicle or test compound begins on day 0, immediately after initial body weights are taken, and ends on day 6. Water bottles are removed and replaced by graduated water bottles containing 5% DSS in indicated groups. Tap water remains on control groups only. Sufficient DSS drinking water is placed in graduated water bottles and refilled each day to monitor daily output. Animals are weighed daily from day 0 to 7, and animal condition and the consistency of stools recorded. Following sacrifice of the animal on day 7, the colon is surgically removed from the distal rectum (anus) to the cecal-colonic juncture and the colon length and weight measured. Colon slices may be obtained for histological evaluation. […] Water consumption and body weights are measured daily. […] An increase in myeloperoxidase activity occurs in this model and is evaluated separately.
# [3] = tested on: Carrageenan paw-induced thermal hyperalgesia; assay: Carrageenan paw-induced thermal hyperalgesia; assay type: in vivo; conditions: rat, po, reversal of carrageenan thermal hyperalgesia; read-out: CgHP ED50
# Description: Each rat is placed on a heated surface (51° C.) in order to measure the time necessary to elicit a response, and an initial (baseline) response time to a thermal stimuli was recorded for each animal. A response is defined as any shaking, licking, or tucking of the treated paw or jumping. Animals not treated with a test compound respond in approximately 20 seconds. The maximal exposure time permitted is 60 seconds to prevent tissue damage. Rats were injected with an irritant (e.g., 1% carrageenan solution in 0.9% saline) subcutaneously into the sub-plantar tissue of the left hind paw to stimulate an acute inflammatory reaction.
# Two hours later, the response time of the animal to the thermal stimulus was evaluated and compared to the animal's baseline response time. This shorter response time was recorded as percent hyperalgesia (% H). A cut-off value for % H (usually 75%) was used during analysis to ensure that the animals were hyperalgesic. Animals were then dosed with test drug or vehicle.
# At some time(s) later (typically 45 and 90 minutes), the response time of the animal to the thermal stimulus was again evaluated. For each time point, a percent reversal of hyperalgesia (% R) was calculated using the following formula: % R=(Drug Latency−Carrageenan latency)/(Baseline latency−Carrageenan latency). ED50 values were calculated from % R obtained at several drug doses.
# [4] = molecular target: T2, human VR1 vanilloid receptors (Homo sapiens, UniProt Q8NER1); assay: [3H] RTX binding assay, hVR1 membranes from transfected HEK293 cells; conditions: human VR1, read-out: Receptor binding Ki
# T2 construct: expressed in transfected cells; host or cells: HEK293
# T2 sequence (Q8NER1 whole entry): as above
# Description: Compounds of the present invention were tested for their ability to inhibit the binding of [^3H] RTX to hVR1 receptors in a [^3H] RTX binding assay as previously described (Zhang, Sui-Po. Improved ligand binding assays for vanilloid receptors. PCT Int. Appl. (2002), 29 pp. CODEN: PIXXD2 WO 0233411 A1 20020425 AN 2002:315209; Grant, Elfrida R.; Dubin, Adrienne E.; Zhang, Sui-Po; Zivin, Robert A.; Zhong, Zhong Simultaneous intracellular calcium and sodium flux imaging in human vanilloid receptor 1 (VR1)-transfected human embryonic kidney cells: a method to resolve ionic dependence of VR1-mediated cell death. Journal of Pharmacology and Experimental Therapeutics (2002), 300(1), 9–17.)
# HEK293 cells were transfected with human VR1 vanilloid receptors and washed with Hank's Balanced Salt Solution, dissociated with cell dissociation buffer (Sigma), and then centrifuged at 1000×g for 5 min. Cell pellets were homogenized in cold 20 mM HEPES buffer, pH 7.4, containing 5.8 mM NaCl, 320 mM sucrose, 2 mM MgCl2, 0.75 CaCl2 and 5 mM KCl and centrifuged at 1000×g for 15 min. The resultant supernate was then centrifuged at 40000×g for 15 min. The pelleted membranes were kept in an −80° C. freezer.
# Approximately 120 μg protein/ml from membranes were incubated with indicated concentrations of [^3H] RTX in 0.5 ml of the HEPES buffer (pH 7.4) containing 0.25 mg/mL fatty acid-free bovine serum albumin at 37° C. for 60 min. The reaction mixture was then cooled to 4° C., 0.1 mg α1-acid glycoprotein added to each sample and incubated at 4° C. for 15 min. The samples were centrifuged at 18500×g for 15 min. The tip of the microcentrifuge tube containing the pellet was cut off. Bound radioactivity was quantified by scintillation counting. Non-specific binding was tested in the presence of 200 nM unlabeled RTX.
# VR1 (rat spinal cord) = molecular target: T3, VR1 (rat spinal cord) (Rattus norvegicus, UniProt O35433); assay: [3H]-RTX binding assay using rat tissue (spinal cord membranes); conditions: cells marked (rat), read-out: Receptor binding Ki (rat)
# T3 construct: Rat spinal cord was homogenized twice with a Polytron; from tissue; host or cells: rat spinal cord membranes
# T3 sequence (O35433 whole entry): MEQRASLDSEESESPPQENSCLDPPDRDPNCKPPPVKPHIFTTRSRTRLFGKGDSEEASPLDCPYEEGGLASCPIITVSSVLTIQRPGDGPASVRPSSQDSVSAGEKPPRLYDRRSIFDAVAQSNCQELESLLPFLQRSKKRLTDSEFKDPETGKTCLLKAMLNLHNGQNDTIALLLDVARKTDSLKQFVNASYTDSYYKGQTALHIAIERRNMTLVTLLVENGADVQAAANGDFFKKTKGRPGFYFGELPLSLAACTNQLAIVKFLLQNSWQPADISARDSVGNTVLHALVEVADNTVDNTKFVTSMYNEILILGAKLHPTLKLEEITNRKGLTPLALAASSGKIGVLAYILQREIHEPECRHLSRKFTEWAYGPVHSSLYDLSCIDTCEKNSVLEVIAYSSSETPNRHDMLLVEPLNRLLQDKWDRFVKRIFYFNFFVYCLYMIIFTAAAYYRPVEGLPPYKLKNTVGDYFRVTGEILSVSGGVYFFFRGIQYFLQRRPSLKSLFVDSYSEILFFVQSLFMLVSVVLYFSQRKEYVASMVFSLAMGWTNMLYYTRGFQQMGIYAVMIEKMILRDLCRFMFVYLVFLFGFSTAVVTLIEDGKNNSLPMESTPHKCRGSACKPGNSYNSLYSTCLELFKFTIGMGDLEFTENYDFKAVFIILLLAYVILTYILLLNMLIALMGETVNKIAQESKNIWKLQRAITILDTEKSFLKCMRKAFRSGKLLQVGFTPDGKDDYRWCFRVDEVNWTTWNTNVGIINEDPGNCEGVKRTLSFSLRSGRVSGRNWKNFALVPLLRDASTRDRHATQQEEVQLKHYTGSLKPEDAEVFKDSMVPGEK
# Description: Alternatively, a binding assay using rat tissue was used. Rat spinal cord was homogenized twice with a Polytron and centrifuged at 3000 rpm for 10 min in HEPES buffer containing 20 mM HEPES, pH 7.4, NaCl 5.8 mM, sucrose 320 mM, MgCl2 2 mM, CaCl2 0.75 mM and KCl 5 mM. The supernatant was then centrifuged at 18,000 rpm for 20 min. The pellet was saved in a tube and 10 ml assay buffer was added into the tube. The pellet and buffer were mixed with a Polytron. The assay contained 120 μg/ml membrane protein and 0.3–0.6 nM [^3H]-RTX (NEN, Boston) in a total volume of 0.5 ml HEPES buffer. Following-incubation for 60 min at 37 C, the samples were cooled down on ice, and 100 mg of α-acid glycoprotein were added into the samples. After centrifugation at 13,000 rpm for 15 min, the supernatant was aspirated and the tips of tubes were cut off and placed into 6 ml vials. Data were calculated according to the equation: % inhibition=(total binding−binding)*100/(total binding−non specific binding). Ki value values were calculated using a Prism program.
# [5] = molecular target: T4, VR1 expressed endogenously on small rat dorsal root ganglion (DRG) neurons (Rattus norvegicus, UniProt O35433); assay: Electrophysiologic functional assay using dissociated rat DRG cells; assay type: cell-based; conditions: read-out: In vitro functional assays Estimated pA2 (rat) (converted)
# T4 construct: VR1 expressed endogenously on small rat dorsal root ganglion (DRG) neurons; endogenous in cells; host or cells: dissociated rat DRG neurons
# T4 sequence (O35433 whole entry): as above
# Description: Compounds are tested for their activity on VR1 expressed endogenously on small rat dorsal root ganglion (DRG) neurons. DRG neurons from normal rats were dissociated (see methods in Chaplan et al., 2003) and whole cell currents mediated by VR1 were recorded using the whole cell patch clamp technique.
# [6] = tested on: capsaicin-induced cough responses; assay: Capsaicin-induced cough (antitussive efficacy); assay type: in vivo; conditions: guinea pig, 25 mg/kg IP at -60 min; vehicle 3.0±0.5; P<0.001
# Description: The antitussive activity of intraperitoneally (IP) administered compound is assessed at a single dose level against casaicin-induced cough responses as compared to positive and vehicle controls. Thirty-six male Dunkin-Hartley guinea pigs (295–590 g, mean 425 g) are randomly allocated to one of three groups (n=12 guinea pigs per group). […] Guinea pigs are dosed IP at −60 min with vehicle (15% Solutol in 5% dextrose solution); the positive control codeine (25 mg/kg), or test compound (20 mg/kg in 15% Solutol in 5% dextrose solution). Individual guinea pigs are placed in an exposure chamber with an airflow of 3 L/min at −10 min to acclimatize. […] The mean±SEM number of capsaicin-induced cough responses recorded in vehicle pre-treated guinea pigs was 3.0±0.5. […] ANOVA statistical analysis was used to determine the level of significance.
structure (smiles),measurement,setting,value
CC(C)(C)c1ccc(CNC(=O)Nc2cccc3cnccc23)cc1 [Compound 33],antagonist Kb (from pA2) against capsaicin-induced contraction,[1],13 nM
same,IC50 or EC50,human VR1,2.7 nM
same,protection against colon shortening,[2],did not protect
same,protection against colon weight loss,[2],did not protect
same,ED50,[3],0.276 mg/kg
same,Ki,[4],0.26 nM
O=C(NCc1ccc(-c2cccs2)s1)Nc1cccc2ccc(O)cc12 [Compound 39],Ki,VR1 (rat spinal cord),382 nM
"O=C(NCc1ccc(Cl)c(C(F)(F)F)c1)Nc1cccc2ccc(O)cc12 [Compound 57, 1-(4-Chloro-3-trifluoromethyl-benzyl)-3-(7-hydroxy-naphthalen-1-yl)-urea]",Kb,[5],~10 nM
same,ED50,[3],0.354 mg/kg
same,Ki,[4],1.14 nM
COc1ccc2c3c1O[C@H]1[C@@H](O)C=C[C@H]4[C@@H](C2)N(C)CC[C@@]341 [codeine],number of capsaicin-induced cough responses (mean±SEM),[6],0.58±0.15 coughs
